Assay results published in patent US20220347130A1, “ANTI-OBESITY COMPOSITION CONTAINING COLCHICINE AND METFORMIN AS EFFECTIVE AGENTS” (priority 2021, published 2022).
Where two headings read alike, the source gives them in different places.

Key:
[1] = HFD obesity-induced rats; colchicine 50, 100, 200 μg/kg and/or metformin 200 mg/kg, oral once a day; FIG. 1
Protocol: Low fat diet (LFD: containing 10 kcal % fat) or high fat diet (HFD: containing 60 kcal % fat) feed was taken autonomously for 12 weeks in 6-week-old C57BL/6J sp. male rats. The obesity-induced rats due to the intake of the HFD feed additionally took the HFD feed for 12 weeks and were administered with colchicine of 50, 100, and 200 μg/kg or metformin of 200 mg/kg alone or co-administered with the colchicine and the metformin. A control drug, Xenical (orlistat ingredient) was administered alone at 60 mg/kg. All drugs were orally administered once a day.
Changes in body weight of obesity-induced rats were measured according to single administration of colchicine or metformin and co-administration of colchicine and metformin, which were illustrated in FIG. 1.

[2] = type: in vivo, rats; settings: oral once a day; for blood levels of AST and ALT (in words): HFD obesity-induced rats, colchicine 50, 100, 200 μg/kg and/or metformin 200 mg/kg, Table 1; for ALT / AST: HFD rats, 12 weeks, blood
Protocol: Finally, after the drugs were administered to the obesity-induced rats, changes in blood levels of aspartate aminotransferase (AST) and alanine transaminase (ALT) were measured and illustrated in Table 1 below.

[3] = Epididymal fat weight of HFD obesity-induced rats; type: in vivo; settings: for weight of epididymal fat: colchicine 50, 100, 200 μg/kg and/or metformin 200 mg/kg, oral once a day, FIG. 3; for effect of reducing the fat of the obesity-induced rats: summary of the results
Protocol: Next, after the drugs were administered to the obesity-induced rats, the weights of epididymal fat were measured and the results thereof was illustrated in FIG. 3.

[4] = system: SREBP-1c; test: Expression of obesity-related gene SREBP-1c in epididymal fat of obesity-induced rats; type: in vivo; settings: epididymal fat of HFD obesity-induced rats; colchicine 50, 100, 200 μg/kg and/or metformin 200 mg/kg, oral once a day; FIG. 4
Protocol: (§1) Meanwhile, after the drugs were administered to the obesity-induced rats, the expression of obesity-related genes SREBP-1c and FAS was measured, and the results thereof were illustrated in FIGS. 4A and 4B.

[5] = system: FAS (fatty acid synthase); test: Expression of obesity-related gene FAS in epididymal fat of obesity-induced rats; type: in vivo; settings: epididymal fat of HFD obesity-induced rats; colchicine 50, 100, 200 μg/kg and/or metformin 200 mg/kg, oral once a day; FIG. 4
Protocol: as §1

SMILES | changes in body weight (increase in body weight induced by the HFD) [1] | blood levels of AST and ALT (in words) [2] | ALT ([2]; colchicine 50 μg/kg) | AST ([2]; colchicine 50 μg/kg) | ALT ([2]; colchicine 100 μg/kg) | AST ([2]; colchicine 100 μg/kg) | ALT ([2]; colchicine 200 μg/kg) | AST ([2]; colchicine 200 μg/kg) | weight of epididymal fat [3] | effect of reducing the fat of the obesity-induced rats [3] | expression of SREBP-1c [4] | expression of FAS [5] | ALT ([2]; metformin 200 mg/kg) | AST ([2]; metformin 200 mg/kg) | ALT ([2]; orlistat 60 mg/kg) | AST ([2]; orlistat 60 mg/kg)
COc1cc2c(c(OC)c1OC)-c1ccc(OC)c(=O)cc1[C@@H](NC(C)=O)CC2 [Colchicine, colchicine] | not changed | not changed | 175.08 ± 2.78 U/L | 372.26 ± 3.75 U/L | 164.5 ± 2.11 U/L | 346.91 ± 3.90 U/L | 157.38 ± 3.3 U/L | 309.24 ± 2.61 U/L | not changed | almost no effect | not changed | not changed |  |  |  | 
CN(C)C(=N)N=C(N)N [Metformin, metformin] | slightly reduced | slightly reduced |  |  |  |  |  |  | slightly reduced | a slight effect | slightly reduced | slightly reduced | 156.41 ± 2.77 U/L | 284.37 ± 2.78 U/L |  | 
CCCCCCCCCCC[C@@H](C[C@@H]1OC(=O)[C@H]1CCCCCC)OC(=O)[C@H](CC(C)C)NC=O [Orlistat, orlistat] |  |  |  |  |  |  |  |  |  |  |  |  |  |  | 175.20 ± 3.11 U/L | 203.31 ± 3.72 U/L
